Here are results for 5 compounds from paper PMC10175918 (Communications Biology, 2023).

Like-named read-outs stand apart in the source and are kept apart here.

What all share (assay): TGFα-shedding assay-based GPCR screening with chimeric Gα subunit proteins
Common to all, as to type: cell-based

In test [1] the target is T1, 348 GPCRs (Homo sapiens, UniProt P20309).
T1 construct: expressed in transfected cells; host or cells: HEK293A

Test [2] addresses T2, 348 GPCRs (Homo sapiens, UniProt P29275).
T2 construct: expressed in transfected cells; host or cells: HEK293A
T2 sequence (P29275 1-332): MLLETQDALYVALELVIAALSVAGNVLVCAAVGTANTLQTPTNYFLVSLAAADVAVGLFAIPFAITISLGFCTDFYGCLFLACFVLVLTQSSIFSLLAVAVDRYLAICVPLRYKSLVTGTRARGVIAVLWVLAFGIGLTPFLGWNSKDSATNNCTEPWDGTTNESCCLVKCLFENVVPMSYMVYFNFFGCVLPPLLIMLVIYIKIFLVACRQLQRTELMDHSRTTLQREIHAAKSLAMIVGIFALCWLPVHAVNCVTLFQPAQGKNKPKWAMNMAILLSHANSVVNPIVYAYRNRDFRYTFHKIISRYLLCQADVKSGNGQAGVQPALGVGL
As to conditions: 10µM, Favipiravir 100μM.

Test [3] concerns the target T3, 348 GPCRs (Homo sapiens, UniProt P32241).
T3 construct: expressed in transfected cells; host or cells: HEK293A
T3 sequence (P32241 31-457): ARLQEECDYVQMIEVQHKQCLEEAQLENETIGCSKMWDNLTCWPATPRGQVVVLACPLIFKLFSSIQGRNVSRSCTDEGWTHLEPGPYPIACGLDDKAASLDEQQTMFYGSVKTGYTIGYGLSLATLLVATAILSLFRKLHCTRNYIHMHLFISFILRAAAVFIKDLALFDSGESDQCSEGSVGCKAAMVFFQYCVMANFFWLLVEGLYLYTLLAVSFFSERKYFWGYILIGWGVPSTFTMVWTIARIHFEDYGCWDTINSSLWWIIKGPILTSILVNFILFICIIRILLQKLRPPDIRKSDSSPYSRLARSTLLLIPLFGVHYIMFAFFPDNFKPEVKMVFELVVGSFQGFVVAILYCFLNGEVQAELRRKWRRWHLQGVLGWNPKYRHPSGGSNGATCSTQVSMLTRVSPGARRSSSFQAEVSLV

The target of test [4] is T4, 348 GPCRs (Homo sapiens, UniProt P47893).
T4 construct: expressed in transfected cells; host or cells: HEK293A
T4 sequence (P47893 1-321): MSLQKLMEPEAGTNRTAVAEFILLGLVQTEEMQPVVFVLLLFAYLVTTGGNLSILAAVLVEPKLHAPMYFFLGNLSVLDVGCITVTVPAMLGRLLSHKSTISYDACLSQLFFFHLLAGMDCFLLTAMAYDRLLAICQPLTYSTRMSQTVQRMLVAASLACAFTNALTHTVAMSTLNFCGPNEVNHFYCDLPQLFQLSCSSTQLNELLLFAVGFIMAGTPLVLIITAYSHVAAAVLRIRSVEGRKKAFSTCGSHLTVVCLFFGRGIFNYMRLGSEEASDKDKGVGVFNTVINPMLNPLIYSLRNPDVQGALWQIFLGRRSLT
The note with it: 10µM, Favipiravir 100μM.

In test [5] the target is T5, 348 GPCRs (Homo sapiens, UniProt Q8TCW9).
T5 construct: expressed in transfected cells; host or cells: HEK293A

For test [6], the target named is T6, 348 GPCRs (Homo sapiens, UniProt Q99705).
T6 construct: expressed in transfected cells; host or cells: HEK293A

Test [7] deals with T7, 348 GPCRs (Homo sapiens, UniProt Q9BXC0).
T7 construct: expressed in transfected cells; host or cells: HEK293A
The note with it: 10µM, Favipiravir 100μM.

In test [8] the target is T8, 348 GPCRs (Homo sapiens, UniProt Q9HBW9).
T8 construct: expressed in transfected cells; host or cells: HEK293A
T8 sequence (Q9HBW9 20-690): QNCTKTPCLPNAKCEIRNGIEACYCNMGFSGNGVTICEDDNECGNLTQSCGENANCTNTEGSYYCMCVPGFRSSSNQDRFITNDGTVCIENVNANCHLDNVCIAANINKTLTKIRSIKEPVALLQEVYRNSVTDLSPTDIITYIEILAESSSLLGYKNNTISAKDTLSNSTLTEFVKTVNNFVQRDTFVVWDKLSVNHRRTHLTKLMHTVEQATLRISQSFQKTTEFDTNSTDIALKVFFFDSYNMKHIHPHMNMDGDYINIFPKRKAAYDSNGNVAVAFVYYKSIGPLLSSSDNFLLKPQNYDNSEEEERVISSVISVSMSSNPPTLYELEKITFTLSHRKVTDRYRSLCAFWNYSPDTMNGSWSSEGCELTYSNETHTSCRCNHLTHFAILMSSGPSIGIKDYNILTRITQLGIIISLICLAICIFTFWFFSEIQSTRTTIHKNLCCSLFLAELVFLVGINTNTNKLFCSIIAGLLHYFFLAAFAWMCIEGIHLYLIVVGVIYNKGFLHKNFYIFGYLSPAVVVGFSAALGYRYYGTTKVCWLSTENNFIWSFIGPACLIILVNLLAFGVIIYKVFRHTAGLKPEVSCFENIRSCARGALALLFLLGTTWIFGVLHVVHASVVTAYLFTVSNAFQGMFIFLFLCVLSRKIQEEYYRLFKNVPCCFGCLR
The note with it: 10µM, Favipiravir 100μM.

The target of test [9] is T9, 348 GPCRs (Homo sapiens, UniProt Q9NS75).
T9 construct: expressed in transfected cells; host or cells: HEK293A
T9 sequence (Q9NS75 1-346): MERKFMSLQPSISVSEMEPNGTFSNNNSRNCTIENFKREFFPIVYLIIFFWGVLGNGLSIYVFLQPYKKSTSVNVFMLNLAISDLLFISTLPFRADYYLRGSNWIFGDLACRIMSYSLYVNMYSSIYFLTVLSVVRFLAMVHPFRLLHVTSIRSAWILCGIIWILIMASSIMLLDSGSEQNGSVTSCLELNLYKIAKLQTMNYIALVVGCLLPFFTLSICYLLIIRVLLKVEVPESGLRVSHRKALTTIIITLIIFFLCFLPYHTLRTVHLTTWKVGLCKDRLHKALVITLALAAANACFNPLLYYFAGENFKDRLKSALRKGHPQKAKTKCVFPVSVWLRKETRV

Where [10] appears, read: ADORA2B (adenosine A2b receptor), read-out: % GPCR activation compared to TPA.
The mark [11] stands for this setting: OR3A2 (olfactory receptor, family 3, subfamily A, member 2), read-out: % GPCR activation compared to TPA.
The mark [12] stands for this setting: GPR81 (hydroxycarboxylic acid receptor 1), read-out: % GPCR activation compared to TPA.
Where [13] appears, read: ELTD1 (EGF, latrophilin and seven transmembrane domain containing 1), read-out: % GPCR activation compared to TPA.
Where [14] appears, read: read-out: % GPCR activation compared to TPA, GPCR M3 (Muscarinic acetylcholine receptor M3).
The mark [15] stands for this setting: read-out: % GPCR activation compared to TPA, ADORA2B (adenosine A2b receptor).
[16] abbreviates: read-out: % GPCR activation compared to TPA, GPCR VIPR1 (vasoactive intestinal peptide receptor 1).
[17] abbreviates: read-out: % GPCR activation compared to TPA, OR3A2 (olfactory receptor, family 3, subfamily A, member 2).
Setting [18] is: read-out: % GPCR activation compared to TPA, GPCR PK1 (prokineticin receptor 1).
[19] abbreviates: read-out: % GPCR activation compared to TPA, GPCR MCHR1 (melanin concentrating hormone receptor 1).
The mark [20] stands for this setting: read-out: % GPCR activation compared to TPA, GPR81 (hydroxycarboxylic acid receptor 1).
Setting [21] is: read-out: % GPCR activation compared to TPA, ELTD1 (EGF, latrophilin and seven transmembrane domain containing 1).
Setting [22] is: read-out: % GPCR activation compared to TPA, GPCR CYSLTR2 (cysteinyl leukotriene receptor 2).
Setting [23] is: GPCR M3 (Muscarinic acetylcholine receptor M3), read-out: % GPCR activation compared to TPA.
Where [24] appears, read: GPCR VIPR1 (vasoactive intestinal peptide receptor 1), read-out: % GPCR activation compared to TPA.
Where [25] appears, read: GPCR PK1 (prokineticin receptor 1), read-out: % GPCR activation compared to TPA.
Setting [26] is: GPCR MCHR1 (melanin concentrating hormone receptor 1), read-out: % GPCR activation compared to TPA.
Where [27] appears, read: GPCR CYSLTR2 (cysteinyl leukotriene receptor 2), read-out: % GPCR activation compared to TPA.

T6 sequence (Q99705 whole entry): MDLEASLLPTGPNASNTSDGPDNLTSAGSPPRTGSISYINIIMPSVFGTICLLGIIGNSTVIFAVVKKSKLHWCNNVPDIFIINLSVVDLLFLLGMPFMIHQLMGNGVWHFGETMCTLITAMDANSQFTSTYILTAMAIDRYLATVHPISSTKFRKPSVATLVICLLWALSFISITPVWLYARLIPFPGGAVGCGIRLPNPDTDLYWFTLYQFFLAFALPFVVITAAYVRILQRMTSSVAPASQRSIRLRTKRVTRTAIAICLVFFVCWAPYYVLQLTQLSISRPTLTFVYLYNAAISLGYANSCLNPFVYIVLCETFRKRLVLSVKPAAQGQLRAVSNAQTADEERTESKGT
T1 sequence (P20309 whole entry): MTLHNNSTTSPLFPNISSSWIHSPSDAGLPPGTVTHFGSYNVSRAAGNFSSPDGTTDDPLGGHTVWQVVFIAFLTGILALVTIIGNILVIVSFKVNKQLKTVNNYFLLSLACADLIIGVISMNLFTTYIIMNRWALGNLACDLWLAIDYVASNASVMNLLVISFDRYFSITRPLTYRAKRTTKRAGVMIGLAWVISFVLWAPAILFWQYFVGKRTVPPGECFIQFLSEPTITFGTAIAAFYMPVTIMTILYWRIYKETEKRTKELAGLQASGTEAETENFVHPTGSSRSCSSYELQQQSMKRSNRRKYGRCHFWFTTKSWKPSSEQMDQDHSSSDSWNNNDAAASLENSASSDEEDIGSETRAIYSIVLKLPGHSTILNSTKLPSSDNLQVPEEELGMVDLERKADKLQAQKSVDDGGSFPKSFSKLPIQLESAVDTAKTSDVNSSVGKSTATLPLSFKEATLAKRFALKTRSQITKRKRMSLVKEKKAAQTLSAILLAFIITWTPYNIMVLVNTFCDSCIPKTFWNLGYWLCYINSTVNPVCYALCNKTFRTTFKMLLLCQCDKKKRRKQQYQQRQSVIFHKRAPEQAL
T7 sequence (Q9BXC0 whole entry): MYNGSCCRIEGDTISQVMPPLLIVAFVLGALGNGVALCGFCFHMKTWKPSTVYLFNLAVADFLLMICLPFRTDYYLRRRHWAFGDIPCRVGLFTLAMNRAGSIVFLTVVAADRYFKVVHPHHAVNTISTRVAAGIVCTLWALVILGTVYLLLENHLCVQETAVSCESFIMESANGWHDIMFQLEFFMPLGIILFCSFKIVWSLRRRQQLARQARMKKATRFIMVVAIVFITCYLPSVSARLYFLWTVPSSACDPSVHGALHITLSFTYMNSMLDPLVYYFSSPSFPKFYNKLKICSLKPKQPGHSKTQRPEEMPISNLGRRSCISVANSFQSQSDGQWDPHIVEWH
T5 sequence (Q8TCW9 whole entry): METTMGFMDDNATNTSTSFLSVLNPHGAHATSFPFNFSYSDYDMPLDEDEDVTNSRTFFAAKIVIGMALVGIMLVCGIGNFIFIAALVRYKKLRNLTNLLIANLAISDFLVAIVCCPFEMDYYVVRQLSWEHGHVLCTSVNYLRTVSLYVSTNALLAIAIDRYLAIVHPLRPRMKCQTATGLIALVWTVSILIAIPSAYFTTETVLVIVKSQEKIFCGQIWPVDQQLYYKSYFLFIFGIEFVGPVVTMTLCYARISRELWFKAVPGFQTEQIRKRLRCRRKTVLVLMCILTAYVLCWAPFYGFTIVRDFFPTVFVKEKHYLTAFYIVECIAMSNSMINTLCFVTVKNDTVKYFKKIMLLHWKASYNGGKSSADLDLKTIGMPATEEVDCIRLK

For `NC(=O)c1nc(F)cnc1O` [favipiravir, 6-fluoro-3-hydroxy-2-pyrazinecarboxamide], the activation at 100 µM was 0.164% on 348 GPCRs [1] (GPCR M3 (Muscarinic acetylcholine receptor M3), 100μM, read-out: % GPCR activation compared to TPA); -0.983% at 348 GPCRs [3] (GPCR VIPR1 (vasoactive intestinal peptide receptor 1), 100μM, read-out: % GPCR activation compared to TPA); -2.82% on 348 GPCRs [5] (GPCR PK1 (prokineticin receptor 1), 100μM, read-out: % GPCR activation compared to TPA); -2.9% at 348 GPCRs [6] (GPCR MCHR1 (melanin concentrating hormone receptor 1), 100μM, read-out: % GPCR activation compared to TPA); 0.102% on 348 GPCRs [7] (setting [12]); -0.0903% on 348 GPCRs [8] (setting [13]). Also, the activation at 100 µM at 348 GPCRs [9] (GPCR CYSLTR2 (cysteinyl leukotriene receptor 2), 100μM, read-out: % GPCR activation compared to TPA) is -1.33%. Further, the activation at 10 µM at 348 GPCRs [2] (setting [10]) was 1.67%; at 348 GPCRs [4] (setting [11]) it was -0.0334%.
Take `CC(C)OC(=O)[C@H](C)N[P@](=O)(OC[C@H]1O[C@@H](n2ccc(=O)[nH]c2=O)[C@](C)(F)[C@@H]1O)Oc1ccccc1` [sofosbuvir]: the activation at 10 µM on 348 GPCRs [1] (setting [14]) was -1.32%; at 348 GPCRs [2] (setting [15]), 0.00372%; on 348 GPCRs [3] (setting [16]), 0.0833%; at 348 GPCRs [4] (setting [17]) it was -1.07%; on 348 GPCRs [5] (setting [18]), -1.13%; at 348 GPCRs [6] (setting [19]), -4.22%. Besides, the activation at 10 µM at 348 GPCRs [9] (setting [22]) is -0.91%. Further, the activation at 100 µM is -7.92% at 348 GPCRs [7] (setting [20]) and 0.08% on 348 GPCRs [8] (setting [21]).
In the case of `CCC(CC)COC(=O)[C@H](C)N[P@](=O)(OC[C@H]1O[C@@](C#N)(c2ccc3c(N)ncnn23)[C@H](O)[C@@H]1O)Oc1ccccc1` [remdesivir], the activation at 10 µM at 348 GPCRs [1] (setting [14]) is 2.85%; on 348 GPCRs [2] (setting [15]), 1.79%; on 348 GPCRs [3] (setting [16]), -1.85%; on 348 GPCRs [4] (setting [17]), -3.15%; on 348 GPCRs [5] (setting [18]), -3.33%; at 348 GPCRs [6] (setting [19]), -1.97%. Further, at 348 GPCRs [9] (setting [22]), the activation at 10 µM is -0.408%. The activation at 100 µM worked out at 2.29% at 348 GPCRs [7] (setting [20]) and 0.0637% on 348 GPCRs [8] (setting [21]).
Turning to `N#C[C@@]1(c2ccc3c(N)ncnn23)O[C@H](CO)[C@@H](O)[C@H]1O` [GS441524], the activation at 10 µM was 3.5% on 348 GPCRs [1] (setting [23]); 1.2% at 348 GPCRs [2] (setting [10]); -2.1% on 348 GPCRs [3] (setting [24]); -9.89% at 348 GPCRs [4] (setting [11]); -2.68% on 348 GPCRs [5] (setting [25]); -1.77% on 348 GPCRs [6] (setting [26]). Besides, on 348 GPCRs [9] (setting [27]), the activation at 10 µM was -1.21%. Also, the values for the activation at 100 µM at 348 GPCRs [7] (setting [12]) and at 348 GPCRs [8] (setting [13]) were 1.05% and -0.971%, respectively.
Regarding `CC(C)C(=O)OC[C@H]1O[C@@H](n2ccc(NO)nc2=O)[C@H](O)[C@@H]1O` [molnupiravir], the activation at 10 µM is -0.147% at 348 GPCRs [1] (setting [23]); -1.6% at 348 GPCRs [2] (setting [10]); -0.522% on 348 GPCRs [3] (setting [24]); -0.408% on 348 GPCRs [4] (setting [11]); -3.53% at 348 GPCRs [5] (setting [25]); -2.69% on 348 GPCRs [6] (setting [26]). Moreover, the activation at 10 µM on 348 GPCRs [9] (setting [27]) was -0.187%. The results for the activation at 100 µM on 348 GPCRs [7] (setting [12]) and on 348 GPCRs [8] (setting [13]) were 0.933% and -0.0765%, respectively.
